Values joined by “and” are separate entries in the source; they are usually repeats but may differ in a detail not shown here. Identical values can stand only once.
Target: SSTR2 (Homo sapiens, UniProt P30874)
Test: NanoBiT β-arrestin 1 recruitment assay, HEK293 (SSTR2 wild-type);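 on Bottom (best-fit): percent of maximal wild-type response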;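 on Bottom: percent of maximal wild-type response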;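 on Span (best-fit value): percent of maximal wild-type response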;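 on Span (best-fit): percent of maximal wild-type response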;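 on Span: percent of maximal wild-type response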;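 on Top (best-fit value): percent of maximal wild-type response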;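 on Top (best-fit): percent of maximal wild-type response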;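 on Top: percent of maximal wild-type response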
Format: cell-based
Parameters: Human full-length SSTR wild-type and mutant vectors were C-terminally fused; expressed in transfected cells; host or cells: HEK293; Best-fit values Bottom / Best-fit values Top / Best-fit values Span / Best-fit Bottom / Best-fit Top / Best-fit Span: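 percent of maximal wild-type response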
Conditions: for Span (best-fit value) / Top (best-fit value): β-arrestin1 recruitment
Method: The NanoBiT β-arrestin 1 recruitment assays were carried out according to the method described previously. […] Human full-length SSTR wild-type and mutant vectors were C-terminally fused with a 15-amino acid flexible linker and the small fragment (SmBiT). HEK293 cells were seeded into six-well microplates at a density of 1.0 × 10^6 cells/well and cultured for 24 h at 37 °C with 5% CO2. After that, cells were co-transfected with pcDNA3.1+ vectors encoding SSTR wild-type or mutants and human β-arrestin 1. After transfecting for 24 h, the transfected cells were suspended and seeded into white 96-well plates, and then cultured at 37 °C overnight. After that the medium in each well was exchanged for 90 μl of 0.01% bovine serum albumin containing 20 μl of 50 μM coelenterazine h (Carbosynth) diluted in the HBSS assay buffer and incubated for 40 min at room temperature. Then, ligands diluted in the assay buffer was added to each well and the luminescence intensity was measured using the Synergy H1 microplate reader and detected at room temperature in a time period. All data presented are means of at least three independent experiments.

[1] = D122A set WT-3 = Q126A/Y205A set WT-2 = F208A set WT-3
[2] = F127A set WT-1 = I130A set WT-2
[3] = F127A set WT-3 = I130A set WT-1
[4] = Q126A/I130A set WT-3 = F127A set WT-2
[5] = SSTR2 WT-1 (run 1 of WT in the mutant's section)
[6] = SSTR2 WT-2 (run 2 of WT in the mutant's section)
[7] = SSTR2 WT-3 (run 3 of WT in the mutant's section)
[8] = best-fit value, WT-1 (run 1, WT of each mutant's batch)
[9] = best-fit value, WT-2 (run 2, WT of each mutant's batch)
[10] = best-fit value, WT-3 (run 3, WT of each mutant's batch)

Chain of SSTR2 (P30874 whole entry): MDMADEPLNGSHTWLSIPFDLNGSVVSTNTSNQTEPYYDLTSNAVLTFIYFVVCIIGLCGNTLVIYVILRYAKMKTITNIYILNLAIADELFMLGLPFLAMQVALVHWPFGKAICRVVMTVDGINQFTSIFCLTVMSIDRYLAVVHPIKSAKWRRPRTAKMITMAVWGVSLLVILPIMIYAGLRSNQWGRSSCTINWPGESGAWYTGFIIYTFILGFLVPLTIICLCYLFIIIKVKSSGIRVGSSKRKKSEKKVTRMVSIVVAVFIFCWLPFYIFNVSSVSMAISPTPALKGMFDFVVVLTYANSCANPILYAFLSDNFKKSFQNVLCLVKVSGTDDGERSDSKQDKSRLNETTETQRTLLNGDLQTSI
Chain of SSTR2 (P49407 whole entry partner): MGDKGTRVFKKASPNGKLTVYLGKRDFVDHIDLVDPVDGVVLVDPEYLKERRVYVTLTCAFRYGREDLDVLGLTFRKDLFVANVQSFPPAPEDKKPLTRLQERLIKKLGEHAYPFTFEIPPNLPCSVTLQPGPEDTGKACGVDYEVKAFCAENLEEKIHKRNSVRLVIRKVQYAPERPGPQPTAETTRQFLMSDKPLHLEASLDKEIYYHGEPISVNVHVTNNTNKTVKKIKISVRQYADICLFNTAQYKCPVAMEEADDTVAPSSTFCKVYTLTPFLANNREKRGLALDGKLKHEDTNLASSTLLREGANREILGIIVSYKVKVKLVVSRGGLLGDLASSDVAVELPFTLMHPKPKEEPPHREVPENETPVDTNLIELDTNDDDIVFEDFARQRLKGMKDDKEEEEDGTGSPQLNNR

In the case of `C[C@@H](O)[C@@H]1NC(=O)[C@H](CCCCN)NC(=O)[C@@H](Cc2c[nH]c3ccccc23)NC(=O)[C@H](Cc2ccccc2)NC(=O)[C@@H](NC(=O)[C@H](N)Cc2ccccc2)CSSC[C@@H](C(=O)N[C@H](CO)[C@@H](C)O)NC1=O` [octreotide], the “Bottom (best-fit)” value (D122A set WT-1) is reported as 12.18, the “Span (best-fit)” value (D122A set WT-1) is reported as 93.68 and the “Top (best-fit)” value (D122A set WT-1) is reported as 105.9. For the same compound, the “Bottom (best-fit)” value (D122A set WT-2) was 4.265, the “Span (best-fit)” value (D122A set WT-2) was 83.04 and the “Top (best-fit)” value (D122A set WT-2) was 87.31. The “Bottom (best-fit)” value [1] was -0.5169, the “Span (best-fit)” value [1] was 99.09 and the “Top (best-fit)” value [1] was 98.58. For the same compound, the “Bottom (best-fit)” value [2] was -0.5804, the “Span (best-fit)” value [2] was 101.3 and the “Top (best-fit)” value [2] was 100.7. The “Bottom (best-fit)” value [3] was -0.2332, the “Span (best-fit)” value [3] was 101 and the “Top (best-fit)” value [3] was 100.8. The “Bottom (best-fit)” value (F208A set WT-1) was -0.7342, the “Span (best-fit)” value (F208A set WT-1) was 99.34 and the “Top (best-fit)” value (F208A set WT-1) was 98.6. The “Bottom (best-fit)” value (F208A set WT-2) was -1.061, the “Span (best-fit)” value (F208A set WT-2) was 99.77 and the “Top (best-fit)” value (F208A set WT-2) was 98.71. For the same compound, the Emax (HEK293) was 100%, the “Bottom (best-fit)” value (Q126A set WT-1) was -2.277 and the “Span (best-fit)” value (Q126A set WT-1) was 105. For the same compound, the “Top (best-fit)” value (Q126A set WT-1) was 102.7, the “Bottom (best-fit)” value [4] was 0.158 and the “Span (best-fit)” value [4] was 100.8. The “Top (best-fit)” value [4] was 100.9, the “Span (best-fit value)” value [5] was 93.68 and 99.09 and 83.04 and 90.27 and 99.77 and the “Top (best-fit value)” value [5] was 105.9 and 98.58 and 87.31 and 89.81 and 98.2. For the same compound, the “Span (best-fit value)” value [6] was 83.04 and 105 and 80.44 and 93.46 and 96.97, the “Top (best-fit value)” value [6] was 87.31 and 102.7 and 85.95 and 93.4 and 96.99 and the “Span (best-fit value)” value [7] was 99.09 and 101.1 and 95.18 and 96.4. The “Top (best-fit value)” value [7] was 98.58 and 97.65 and 95.41 and 96.36, the “Best-fit values Bottom” value (WT-1 (F265A set)) was 0.158 and the “Best-fit values Span” value (WT-1 (F265A set)) was 100.8. The “Best-fit values Top” value (WT-1 (F265A set)) was 100.9, the “Best-fit values Bottom” value (WT-1 (F272A set)) was 4.265 and the “Best-fit values Span” value (WT-1 (F272A set)) was 83.04. For the same compound, the “Best-fit values Top” value (WT-1 (F272A set)) was 87.31, the “Best-fit values Bottom” value (WT-1 (K291A set)) was 12.18 and the “Best-fit values Bottom” value (WT-1 (N276A set)) was 12.18. The “Best-fit values Span” value (WT-1 (N276A set)) was 93.68, the “Best-fit values Top” value (WT-1 (N276A set)) was 105.9 and the “Best-fit values Bottom” value (WT-1 (P220A set)) was 1.374. For the same compound, the “Best-fit values Span” value (WT-1 (P220A set)) was 94.44, the “Best-fit values Top” value (WT-1 (P220A set)) was 95.82 and the “Best-fit values Bottom” value (WT-1 (W269A set)) was -1.494. The “Best-fit values Span” value (WT-1 (W269A set)) was 99.94, the “Best-fit values Top” value (WT-1 (W269A set)) was 98.45 and the “Best-fit values Bottom” value (WT-2 (F265A set)) was -0.2332. For the same compound, the “Best-fit values Span” value (WT-2 (F265A set)) was 101, the “Best-fit values Top” value (WT-2 (F265A set)) was 100.8 and the “Best-fit values Bottom” value (WT-2 (F272A set)) was 12.18. For the same compound, the “Best-fit values Span” value (WT-2 (F272A set)) was 93.68, the “Best-fit values Top” value (WT-2 (F272A set)) was 105.9 and the “Best-fit values Bottom” value (WT-2 (K291A set)) was 4.265. The “Best-fit values Bottom” value (WT-2 (N276A set)) was 4.265, the “Best-fit values Span” value (WT-2 (N276A set)) was 83.04 and the “Best-fit values Top” value (WT-2 (N276A set)) was 87.31. The “Best-fit values Bottom” value (WT-2 (P220A set)) was -0.5804, the “Best-fit values Span” value (WT-2 (P220A set)) was 101.3 and the “Best-fit values Top” value (WT-2 (P220A set)) was 100.7. The “Best-fit values Bottom” value (WT-2 (W269A set)) was 12.18, the “Best-fit values Span” value (WT-2 (W269A set)) was 93.68 and the “Best-fit values Top” value (WT-2 (W269A set)) was 105.9. For the same compound, the “Best-fit values Bottom” value (WT-3 (F265A set)) was -0.5804, the “Best-fit values Span” value (WT-3 (F265A set)) was 101.3 and the “Best-fit values Top” value (WT-3 (F265A set)) was 100.7. The “Best-fit values Bottom” value (WT-3 (F272A set)) was -0.5169, the “Best-fit values Span” value (WT-3 (F272A set)) was 99.09 and the “Best-fit values Top” value (WT-3 (F272A set)) was 98.58. The “Best-fit values Bottom” value (WT-3 (K291A set)) was -0.5169, the “Best-fit values Bottom” value (WT-3 (N276A set)) was -0.5169 and the “Best-fit values Span” value (WT-3 (N276A set)) was 99.09. For the same compound, the “Best-fit values Top” value (WT-3 (N276A set)) was 98.58, the “Best-fit values Bottom” value (WT-3 (P220A set)) was -0.2332 and the “Best-fit values Span” value (WT-3 (P220A set)) was 101. The “Best-fit values Top” value (WT-3 (P220A set)) was 100.8, the “Best-fit values Bottom” value (WT-3 (W269A set)) was 6.264 and the “Best-fit values Span” value (WT-3 (W269A set)) was 85.81. For the same compound, the “Best-fit values Top” value (WT-3 (W269A set)) was 92.07, the “Bottom (best-fit)” value (Y205A set WT-1) was -3.442 and the “Span (best-fit)” value (Y205A set WT-1) was 101.1. The “Top (best-fit)” value (Y205A set WT-1) was 97.65, the “Bottom (best-fit)” value (Y205A set WT-3) was 2.142 and the “Span (best-fit)” value (Y205A set WT-3) was 104.5. The “Top (best-fit)” value (Y205A set WT-3) was 106.6, the Span [8] was 99.09 and 101 and 68.4 and the Top [8] was 98.58 and 100.8 and 104.3. The Span [9] was 99.09 and 99.34 and 102.9 and 105, the Top [9] was 98.58 and 98.6 and 97.73 and 102.7 and the Span [10] was 99.09 and 99.77 and 100.8 and 101.1. For the same compound, the Top [10] was 98.58 and 98.71 and 100.9 and 97.65, the Bottom (best-fit, WT-1 (I284A batch)) was 12.18 and the Span (best-fit, WT-1 (I284A batch)) was 93.68. For the same compound, the Top (best-fit, WT-1 (I284A batch)) was 105.9, the Bottom (best-fit, WT-1 (P286A batch)) was 5.515 and the Span (best-fit, WT-1 (P286A batch)) was 80.44. For the same compound, the Top (best-fit, WT-1 (P286A batch)) was 85.95, the Bottom (best-fit, WT-1 (S285A batch)) was 6.264 and the Span (best-fit, WT-1 (S285A batch)) was 85.81. The Top (best-fit, WT-1 (S285A batch)) was 92.07, the Bottom (best-fit, WT-1 (T194A batch)) was -0.5169 and the Top (best-fit, WT-1 (T194A batch)) was 98.58. The Bottom (best-fit, WT-1 (T287A batch)) was 4.265, the Span (best-fit, WT-1 (T287A batch)) was 83.04 and the Top (best-fit, WT-1 (T287A batch)) was 87.31. The Bottom (best-fit, WT-1 (W188A batch)) was 6.264, the Span (best-fit, WT-1 (W188A batch)) was 85.81 and the Top (best-fit, WT-1 (W188A batch)) was 92.07. For the same compound, the Bottom (best-fit, WT-2 (I284A batch)) was -1.639, the Span (best-fit, WT-2 (I284A batch)) was 102.1 and the Top (best-fit, WT-2 (I284A batch)) was 100.5. The Bottom (best-fit, WT-2 (P286A batch)) was 4.265, the Span (best-fit, WT-2 (P286A batch)) was 83.04 and the Top (best-fit, WT-2 (P286A batch)) was 87.31. The Bottom (best-fit, WT-2 (S285A batch)) was 12.18, the Span (best-fit, WT-2 (S285A batch)) was 93.68 and the Top (best-fit, WT-2 (S285A batch)) was 105.9. For the same compound, the Bottom (best-fit, WT-2 (T194A batch)) was -0.7342, the Top (best-fit, WT-2 (T194A batch)) was 98.6 and the Bottom (best-fit, WT-2 (T287A batch)) was 5.515. It also gave a Span (best-fit, WT-2 (T287A batch)) of 80.44, a Top (best-fit, WT-2 (T287A batch)) of 85.95 and a Bottom (best-fit, WT-2 (W188A batch)) of -0.5169. It also gave a Span (best-fit, WT-2 (W188A batch)) of 99.09, a Top (best-fit, WT-2 (W188A batch)) of 98.58 and a Bottom (best-fit, WT-3 (I284A batch)) of 6.264. It also gave a Span (best-fit, WT-3 (I284A batch)) of 85.81, a Top (best-fit, WT-3 (I284A batch)) of 92.07 and a Bottom (best-fit, WT-3 (P286A batch)) of 4.265. For the same compound, the Span (best-fit, WT-3 (P286A batch)) was 83.04, the Top (best-fit, WT-3 (P286A batch)) was 87.31 and the Bottom (best-fit, WT-3 (S285A batch)) was 4.265. It also gave a Span (best-fit, WT-3 (S285A batch)) of 83.04, a Top (best-fit, WT-3 (S285A batch)) of 87.31 and a Bottom (best-fit, WT-3 (T194A batch)) of -1.061. For the same compound, the Top (best-fit, WT-3 (T194A batch)) was 98.71, the Bottom (best-fit, WT-3 (T287A batch)) was -0.5169 and the Span (best-fit, WT-3 (T287A batch)) was 99.09. For the same compound, the Top (best-fit, WT-3 (T287A batch)) was 98.58, the Bottom (best-fit, WT-3 (W188A batch)) was 12.18 and the Span (best-fit, WT-3 (W188A batch)) was 93.68. The Top (best-fit, WT-3 (W188A batch)) was 105.9.
